Measured values published in patent US6841532B2, “Peptides and their use to ameliorate cell death” (priority 1995, dated 2005).
“Also recorded” adds a separate entry of the source. Where no end group is shown, it is not given here.

Legend:
[1] = test system: Cardiac myocytes from embryonic chick hearts; assay: Amelioration of ammonium persulfate-induced cell death in cultured cardiac myocytes (Trypan blue exclusion); format: cell-based; conditions: 1 mM ammonium persulfate
Procedure: Cardiac myocytes from embryonic chick hearts were grown in culture using the procedures described in Rabkin, Exper. Cell. Res. 188:262-266, 1990. Briefly, white Leghorn eggs were incubated in an automatic incubator (March Rollex, Calif., USA) for 7 days at 37.8° C. and 87% humidity. Hearts were then isolated under sterile conditions from the 7-day chick embryo. Blood and connective tissue were removed under a dissecting microscope in a solution of balanced salts (DMS8) with the following composition (mM): NaCl 116, KCl 5.4, NaH2PO4 1 and dextrose 5.6. Disaggregation was carried out by 5-minute digestions in 0.005% trypsin (Gibco Laboratories, Burlington, Ontario), 0.1% BSA and 1×10^7 DNAse per mL, DMS8 (Worthington Biochemicals, Frederic, N.J., USA) at 37° C. After three digestions, the digests were diluted 1:5 in culture medium and the cells centrifuged for three minutes at 1000 g and plated.
The cultured cardiac myocytes were incubated with 1 mM ammonium persulfate for 2 hours at 37° C. to induce oxidative damage. Cell viability was assessed by Trypan blue exclusion. Six samples containing cells were then incubated with 0.0, 0.000375, 0.00375, 0.0375, 0.375 and 37.5 μM streptokinase (Hoechts-Roussel Pharmaceuticals), respectively, and 0.0, 0.000246, 0.00246, 0.0246, 0.246 and 24.6 μM plasminogen, respectively (see Table 1), for 1-2 hours at 37° C. and assessed by Trypan blue exclusion.
Control cell samples were treated with 1 mM ammonium persulfate in the absence of streptokinase (STK) and plasminogen under the same conditions.
The results are described in Table 1 in terms of the percent cell death induced by ammonium persulfate. The data represents the mean of six (6) duplicate determinations, none of which differed by more than 5%.
Each of the nineteen (19) resulting fractions was tested for the peptide's ability to ameliorate cell death according to the assay described in Example 1. The data in Table 2 represent the mean of duplicate determinations. None of the determinations differed by more than 5%.
Based on the sequences identified in Example 2, peptides were synthesized using a commercially available automated synthesizer (Applied Biosystems 430 A Peptide Synthesizer), purified by and tested according to the assay described in Example 1 for their ability to ameliorate cell death in cardiac myocytes. The sequences for these peptides were:
Table 3 presents the percentage of dead cells as measured by Trypan blue assessment as described in Example 1.

[2] = test system: Spinal cord cells isolated from embryonic chicks; assay: Amelioration of ammonium persulfate-induced cell death in spinal cord cells (trypan blue); format: cell-based, chick; conditions: 1 mM ammonium persulfate for 1 or 2 hours; 10 μg/ml or 20 μg/ml peptide; versus control
Procedure: Spinal cord cells isolated from embryonic chicks were grown in culture for 5-7 days. Chick spinal cord cells were cultured as described briefly as follows. Cell cultures were prepared from 7-day chick embryo. Ventral portions of spinal cord were dissected free of meninges and dorsal root ganglia and diced into small pieces in Dulbecco's phosphate-buffered saline (PBS). Tissue fragments were incubated in PBS with 0.25% trypsin and 20 μg/ml DNase for 30 min at 36° C. Trypsin was inactivated by the addition of horse serum and cells were dissociated by gentle pipetting.
Isolated cells were washed, resuspended in medium and plated onto plastic coverslips in petri dishes. The medium consisted of Eagle's minimum essential medium (MEM), 10% fetal bovine serum (FBS), 5 mg/ml D-glucose and 25 μg/ml gentamycin. Cells were grown in an incubator with 5% CO2/95% air at 37° C. and the medium was renewed twice a week. Cells were used for experiment after 14 days.
Both the experimental and control cultures were treated with 1 mM ammonium persulfate for 1 or 2 hours at 37° C. The experimental cultures were treated with either 10 μg/ml or 20 μg/ml of the 20 mer peptide (SEQ ID NO: 6) for the same length of time. The number of dead cells, assayed by trypan blue, in the experimental groups was compared to that in the control group.

[3] = test system: M07E; assay: Serum-deprivation-induced cell death, 3H-thymidine incorporation, M07E; format: cell-based, human; conditions: M07E starved 30 hours, 20 μg/ml, then washed, IL-3 for 22 hours; control 2,003 ± 468
Procedure: (§1) Cells in the latter group were washed free of the 20 mer (SEQ. ID NO. 6), given saturating concentrations of growth factor (5 ng/ml of human interleukin-3) and incubated for an additional 22 hours. After the 22 hours, 1 μCi of ^3H-thymidine (2 Ci/mmol) was added and, after 2 hours, the cellular contents were harvested onto filtermats. Then ^3H-thymidine incorporation was measured using an LKB Betaplate Harvester and liquid scintillation counter. Note the increased viability of cells treated with the 20 mer peptide (SEQ ID NO: 6).

[4] = test system: TF-1; assay: Serum-deprivation-induced cell death, 3H-thymidine incorporation, TF-1; format: cell-based, human; conditions: TF-1 starved 30 hours, 20 μg/ml, then washed, IL-3 for 22 hours; control 14,728 ± 2,825
Procedure: as §1

[5] = reverse phase HPLC fractions of streptokinase incubated 1:1 with plasminogen

Substance	percentage of dead cells ([1]; Peptide Concentration 5 μM)	percentage of dead cells ([1]; Peptide Concentration 20 μM)	other results
EVTEEEETVPLKThE-AMIDE [Irrelevant #3, reference compound]	79.5%	81.1%	–
NFLRGKLKLYTGEACRTGDR [Irrelevant #1, irrelevant peptide utilized as negative control, reference compound]	77.1%	67.6%	–
RLILDSRVLERYLLEAKEAE [Irrelevant #2, irrelevant peptide utilized as negative control, reference compound]	77.4%	76.1%	–
SVDVEY [6 mer #1]	51.9%	36.8%	–
SVDVEYTQFTDFRGKLTKLL [20 mer]	47.6%	23.1%	percentage of dead cells ([1]; Peptide Concentration 10 μM): 35.4%; percentage of dead cells ([1]; Peptide Concentration 15 μM): 31.6%; percentage of dead cells ([1]; Peptide Concentration 20 μM, listed as 20mer): ~20%; survival of spinal cord cells (number of dead cells, trypan blue) [2]: dramatically enhanced cell survival; also recorded: almost completely prevented cell death; 3H-THYMIDINE COUNTS (COUNTS PER MINUTE) [3]: 4,282 ± 212 COUNTS PER MINUTE; 3H-THYMIDINE COUNTS (COUNTS PER MINUTE) [4]: 32,701 ± 5,565 COUNTS PER MINUTE
SVDVEYTVQFTPLNPDDD [18 mer]	–	54.4%	–
SVDVEYTVQFTPLNPDDDFRP [fraction 13]	–	–	Cell Death (%) [1, 5]: 39%
Streptokinase [reference compound]	–	–	Cell Death (%) ([1]; 0.000375 μM streptokinase with 0.000246 μM plasminogen, control 81): 50%; Cell Death (%) ([1]; 0.00375 μM streptokinase with 0.00246 μM plasminogen, control 81): 37%; Cell Death (%) ([1]; 0.0375 μM streptokinase with 0.0246 μM plasminogen, control 81): 29%; Cell Death (%) ([1]; 0.375 μM streptokinase with 0.246 μM plasminogen, control 81): 25%; Cell Death (%) ([1]; 37.5 μM streptokinase with 24.6 μM plasminogen, control 81): 16%
YVDVDT [6 mer #2]	37.0%	25.4%	–
YVDVDTNELLK [11 mer]	38.6%	–	–
YVDVDTNELLKSEQLLTASE [fraction 12]	–	–	Cell Death (%) [1, 5]: 29%
